Experimental findings from patent publication US10336790B2 (priority 2014, dated 2019) are described below.

Ends that are not written are not given here.

Series [1] concerns M. tuberculosis strain MC26230.
In series [2] the test system is lung epithelial A549 cell line. Put plainly: Peptide cytotoxicity, Trypan Blue exclusion assay. It is filed as cell-based, human. Here is the method: (§1) Cytotoxicity studies were performed using three mammalian cell lines which included mouse macrophage J774.16 cell line, human lung epithelial A549 cell line, and sheep red blood cells (sRBCs) in Trypticase soy agar (TSA). Mouse macrophage J774.16 cell line (maintained in antibiotic-free Dulbecco's modified Eagle's medium containing 20% fetal bovine serum, 5% NCTC 109, 1% nonessential amino acids and 1% glutamine) or human lung epithelial A549 cell line (maintained in antibiotic-free Ham's F12 medium supplemented with 10% fetal bovine serum) was seeded at a density of approximately 1×10^5 cells per ml in Lab-tek Permanox eight-chamber microscopy slides (Nunc, Inc., Naperville, Ill.) and incubated for 3 (J774.16) or 5 (A549) days before use. After cell differentiation to a confluence of 70 to 80%, the culture media was replaced with fresh media containing the different AMPS at 64 μg/ml or at toxic dose (320 μg/ml) or controls (media only for negative control or 50 μM NaN3 for positive control). Similarly, AMPS or 1% Triton 100-X as positive control or media only (negative control) was each added to separate wells and allowed to be absorbed into agar at room temperature. All experiments were incubated for 24 hr at 37° C., 5% CO2. All experiments were done in duplicates. Cytotoxicity for J774.16 or A549 cells was monitored using Trypan Blue exclusion assay and the ratio of dead to viable cells was recorded. For sRBCs, the presence of cell lysis after 24 hr of incubation at 37° C. following treatment indicated cytotoxicity.

The test system of another series is macrophage J774.16 cells. As to the kind of experiment: Peptide cytotoxicity, Trypan Blue exclusion assay. The class given is cell-based, mouse. To be noted: for cell death: 170 μM peptide, negative control 10%. Here is the method:
as §1

The mark [3] stands for this setting: 170 μM peptide concentration, compared with the negative control.

“ILSLRWRWKWWKK-NH2 [Peptide B1, ILSLRWRWKWWKK]” yielded an MIC with M. tuberculosis MC26020 of 32 µg/mL.

As to “ILSLRWRWWKWKK-NH2 [Peptide B3, ILSLRWRWWKWKK]”, the MIC in series [1] stood at 64 µg/mL; with M. tuberculosis MC26020, 8 µg/mL. The “cytotoxicity” value is given as “Slight cytotoxicity” in series [2] (setting [3]); “some degree of cytotoxicity” in series [2] (milder than on J774.16 cells, concentration not restated (320 μg/mL in preceding sentence)); “moderate cytotoxicity” in the series on macrophage J774.16 cells (320 μg/mL, 24 hr). In the series with macrophage J774.16 cells, the “cytotoxic concentration (320 μg/mL) relative to MIC against mycobacteria and streptococci” value is “at least five times the MIC”. Besides, the cell death with macrophage J774.16 cells (24 hr) is given as 40%.

As to “ILSLRWWRKWWKK-NH2 [Peptide B2, ILSLRWWRKWWKK]”, the MIC in the series on M. tuberculosis MC26020 was 32 µg/mL. Also, in series [2] (setting [3]), the “cytotoxicity” value was “Slight cytotoxicity”. This substance also came in with a cell death in the series with macrophage J774.16 cells (24 hr) of 20%.

In the series on M. tuberculosis MC26020, “IRKLKSWKWLRWL-NH2 [Peptide B4, IRKLKSWKWLRWL]” returned a minimal inhibitory concentration (MIC) of 32 µg/mL.
